Earlier results on one molecule are cited in US9670196B2, “Thiazole-substituted aminoheteroaryls as Spleen Tyrosine Kinase inhibitors” (Merck Sharp & Dohme Corp., priority 2013, dated 2017).

Molecules are shown by their SMILES.

For data set [1] the following is noted: dosed intranasally, phase I/II study, allergic rhinitis; cited from earlier work.
For data set [2] the following is noted: phase II clinical trial for allergic rhinitis; cited from earlier work.

As for `Oc1cccc(Nc2ncc(F)c(Nc3cccc(O)c3)n2)c1` [Example R112], in data set [1], the PGD2 result is reported as “statistically significant decrease” and the clinical safety entry is reported as “safe across a range of indicators”. In addition, in data set [2], the efficacy versus placebo result is reported as “lack of efficacy versus placebo”.
